From paper PMC5646861 (PLoS ONE, 2017)

Tests used:
SMO-1 [1] = molecular target: T1, SMO-1 (Caenorhabditis elegans, UniProt P55853); assay: NMR titration (15N-HSQC chemical shift perturbation) of SMO-1 with SIM peptides; format: binding; set-up: inferred from pET15b vector with NdeI/BamHI and Ni-NTA purification) (N); made in house; host or cells: E. coli BL21(DE3)
SMO-1 [2] = molecular target: T1, SMO-1; assay: In vitro SMO-1 conjugation assay with FITC-labelled synthetic peptide substrate (human Aos1/Uba2 E1, human Ubc9 E2); format: biochemical, C. elegans; set-up: inferred from pET15b vector with NdeI/BamHI and Ni-NTA purification) (N); made in house; settings: 10mM of peptide, 50 μM SMO-1 or SUMO1, 1 μM E1, 2.5 μM E2, 1 mM ATP, 4°C, 12 hours, 20 mM Tris-Cl pH 8.5, 250 mM NaCl, 5 mM MgCl2, 0.1% v/v Tween 20; SDS-PAGE, FITC fluorescence 519 nm
Experimental: A synthetic peptide, sequence–[…] with Fluorescein iso-thiocyanate (FITC) label at the N-terminus was used as substrate. […] Reaction was carried out at 4°C for 12 hours. The reaction was started by adding 1 mM ATP. Reaction buffer contained 20 mM Tris-Cl pH 8.5, 250 mM NaCl, 5 mM MgCl2, 0.1% v/v Tween 20. […] Reaction buffer was the same as above. The reaction was carried out at 37°C for 4 hours. All reactions were stopped by adding reducing SDS loading dye. Reaction samples were run on 12% w/v SDS PAGE and analysed by probing FITC fluorescence at 519 nm wavelength (excitation wavelength– 495 nm).
To assess the ability of SMO-1 to be conjugated and deconjugated to substrates we developed an in vitro assay. […] As a substrate we used a synthetic peptide harbouring two consensus SUMOylation sites found in the IE2 protein (Fig 6A). To facilitate detection of SUMOylated peptide on SDS-PAGE gels we labelled the peptide with Fluorescein iso-thiocyanate (FITC) fluorophore. […] To verify, we carried out an in-vitro reaction with FITC tagged SMO-1.
(A) Sequence of FITC fluorophore labelled peptide used as substrate in in vitro SUMOylation assays. The lysines competent for SUMOylation are in bigger font and in bold face. All subsequent images were obtained by observing FITC fluorescence at 519 nm unless otherwise mentioned. […] The SDS-PAGE gel is imaged by observing YFP fluorescence. […]
Target sequence in this assay (P55853 1-90): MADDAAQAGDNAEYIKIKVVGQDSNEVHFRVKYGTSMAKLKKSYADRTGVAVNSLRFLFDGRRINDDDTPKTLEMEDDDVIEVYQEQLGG
Target sequence in this assay (P63279 whole entry, further chain): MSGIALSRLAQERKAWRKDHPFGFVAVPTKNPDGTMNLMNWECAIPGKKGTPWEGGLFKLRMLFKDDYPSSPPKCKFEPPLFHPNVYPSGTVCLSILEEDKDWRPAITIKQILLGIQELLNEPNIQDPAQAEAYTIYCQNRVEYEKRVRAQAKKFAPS

SMO-1-YFP = assay: De-conjugation (maturation) assay of SMO-1-YFP with SENP2; format: biochemical, C. elegans; settings: 50mM Tris-Cl pH 7.5 @ 25°C, 150mM NaCl, 1mM DTT; 25–37°C, 6 hours; SDS-PAGE, YFP fluorescence and Coomassie
Experimental: (§1) Deconjugation Assays were performed by adding 10μM SENP2 to poly-SUMO1/2 and poly-SMO-1 chains in the same reaction mix used for conjugation. Deconjugation reaction was carried out at 25°C for 2–3 hours. Reactions were stopped by adding reducing SDS loading dye. Reaction samples were run on 12% w/v SDS PAGE and analysed by probing FITC fluorescence at 519 nm wavelength (excitation wavelength– 495 nm). SMO-1-YFP was checked for deconjugation in 50mM Tris-Cl pH 7.5 @ 25°C, 150mM NaCl, 1mM DTT reaction buffer. SENP2 was mixed with SMO-1-YFP and incubated at temperatures from 25–37°C for 6 hours. The reaction mix were then run separately on two SDS-PAGE gels for imaging using fluorescence and for staining with Coomassie Brilliant Blue R-250 Dye.
(§2) DeSUMOylation enzymes can cleave SUMO chains, making the process reversible to enable another level of control over the SUMOylation process.

[3] = system: substrate-polySMO-1 conjugates; assay: In vitro SMO-1 deconjugation assay with SENP2 on SMO-1 chains from the peptide; format: biochemical; settings: 10μM SENP2 (human), same reaction mix as conjugation, 25°C, 2–3 hours; SDS-PAGE, FITC fluorescence
Experimental: as §1, §2

Question: How did the Kd (SMO-1 [1]) turn out when CC[C@H](C)[C@H](NC(=O)[C@H](CS)NC(=O)CNC(=O)[C@H](C)NC(=O)[C@@H](NC(=O)[C@@H](N)CC(=O)O)[C@@H](C)O)C(=O)N[C@H](C(=O)N[C@H](C(=O)N[C@@H](CO)C(=O)N[C@@H](CC(=O)O)C(=O)N[C@@H](CO)C(=O)N[C@@H](CCC(=O)O)C(=O)N[C@@H](CCC(=O)O)C(=O)N[C@@H](CCC(=O)O)C(=O)N[C@@H](CCC(N)=O)C(=O)NCC(=O)N[C@@H](CCC(=O)O)C(=O)N[C@@H](CCC(=O)O)C(=O)N[C@@H](Cc1c[nH]c2ccccc12)C(=O)O)[C@@H](C)CC)C(C)C [IE2-SIM] was run?
Answer: 108 µM

Question: For “PLIKQEDIKPEPDFTIQYRNKIIDTAGCIVISDSEEE [synthetic peptide, synthetic peptide harbouring two consensus SUMOylation sites found in the IE2 protein]”, which “SMO-1 conjugation on the substrate” value (SMO-1 [2]) is on record?
Answer: Rapid SMO-1 conjugation was observed on the substrate

B1: SENP2: human deSUMOylation enzyme (protein, UniProt Q9HC62 1-589, looked up)
Sentrin-specific protease 2: MYRWLVRILGTIFRFCDRSVPPARALLKRRRSDSTLFSTVDTDEIPAKRPRLDCFIHQVKNSLYNAASLFGFPFQLTTKPMVTSACNGTRNVAPSGEVFSNSSSCELTGSGSWNNMLKLGNKSPNGISDYPKIRVTVTRDQPRRVLPSFGFTLNSEGCNRRPGGRRHSKGNPESSLMWKPQEQAVTEMISEESGKGLRRPHCTVEEGVQKEEREKYRKLLERLKESGHGNSVCPVTSNYHSSQRSQMDTLKTKGWGEEQNHGVKTTQFVPKQYRLVETRGPLCSLRSEKRCSKGKITDTETMVGIRFENESRRGYQLEPDLSEEVSARLRLGSGSNGLLRRKVSIIETKEKNCSGKERDRRTDDLLELTEDMEKEISNALGHGPQDEILSSAFKLRITRGDIQTLKNYHWLNDEVINFYMNLLVERNKKQGYPALHVFSTFFYPKLKSGGYQAVKRWTKGVNLFEQEIILVPIHRKVHWSLVVIDLRKKCLKYLDSMGQKGHRICEILLQYLQDESKTKRNSDLNLLEWTHHSMKPHEIPQQLNGSDCGMFTCKYADYISRDKPITFTQHQMPLFRKKMVWEILHQQLL
Question: B1 was tested. Which “cleavage of SMO-1 from SMO-1-YFP by SENP2” value (SMO-1-YFP) did it give?
Answer: could cleave SMO-1 from SMO-1-YFP

Question: What about the “cleavage of SMO-1 chains from peptide by SENP2” value [3] of the same molecule?
Answer: could efficiently edit the SMO-1 chains from the peptide
